From patent US20230203098A1, “HUMAN TRANSFERRIN RECEPTOR BINDING PEPTIDE” (priority 2020, published 2023) come the findings set out here.

A value given as a limit tells only on which side of the number the result lay.

transferrin receptor (hTfR), sequence (P02786 whole entry): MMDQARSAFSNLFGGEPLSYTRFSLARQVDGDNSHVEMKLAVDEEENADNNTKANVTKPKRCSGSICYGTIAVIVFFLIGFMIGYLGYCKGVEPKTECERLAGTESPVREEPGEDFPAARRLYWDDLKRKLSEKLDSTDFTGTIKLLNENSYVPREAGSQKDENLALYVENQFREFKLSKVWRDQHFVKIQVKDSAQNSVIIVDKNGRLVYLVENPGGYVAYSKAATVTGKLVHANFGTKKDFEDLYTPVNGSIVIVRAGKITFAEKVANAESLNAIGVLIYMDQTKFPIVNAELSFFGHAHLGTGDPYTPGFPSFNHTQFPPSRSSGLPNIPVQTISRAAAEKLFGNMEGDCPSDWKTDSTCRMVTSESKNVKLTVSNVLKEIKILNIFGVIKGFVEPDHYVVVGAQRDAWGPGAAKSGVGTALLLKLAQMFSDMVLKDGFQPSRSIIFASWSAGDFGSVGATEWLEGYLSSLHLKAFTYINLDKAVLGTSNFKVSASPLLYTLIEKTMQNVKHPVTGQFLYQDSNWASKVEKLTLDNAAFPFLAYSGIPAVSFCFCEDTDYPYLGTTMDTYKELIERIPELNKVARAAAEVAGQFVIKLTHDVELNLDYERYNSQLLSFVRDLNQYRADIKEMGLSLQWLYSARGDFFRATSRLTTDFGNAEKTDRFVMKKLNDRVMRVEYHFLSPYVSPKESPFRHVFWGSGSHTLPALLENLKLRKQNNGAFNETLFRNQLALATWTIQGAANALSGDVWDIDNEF

The first test concerns the target transferrin receptor (hTfR) (Homo sapiens, UniProt P02786). The test is described as follows: Intermolecular interaction evaluation test between transferrin receptor (hTfR) and peptide by surface plasmon resonance (SPR). In kind it is binding. To be noted: SPR; linker and payload (FITC, VivoTag) conjugates; read-out: KD. Summed up:
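hTfR captured on Ni-NTA chip then amine-coupled; peptides run single-cycle kinetics at 5–100 nM in 10 mM HEPES pH 8.0, 150 mM NaCl, 0.05% Tween 20, 0.1% BSA, 1.0% DMSO. KD from least-squares curve fitting of sensorgrams.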
(SPR reads the build-up and loss of mass on a sensor chip optically.)
Broadly, the Kd is a measure of binding affinity in units of concentration. `CC[C@H](C)[C@@H]1NC(=O)[C@H](Cc2ccc(O)cc2)NC(=O)[C@H](Cc2ccc(O)cc2)NC(=O)[C@H](CC(N)=O)NC(=O)[C@H](Cc2c[nH]c3ccccc23)NC(=O)[C@H](C(C)C)NC(=O)[C@H](Cc2ccccc2)N(C)C(=O)[C@H](C(C)C)NC(=O)[C@H](C)NC(=O)CSC[C@@H](C(=O)NCCOCCOCCOCCOCCC(=O)N[C@@H](CNC(=O)c2ccc(-c3c4ccc(=O)cc-4oc4cc(O)ccc34)c(C(=O)O)c2)C(N)=O)NC(=O)[C@H](Cc2ccc(O)cc2)N(C)C(=O)[C@H](Cc2ccc(O)cc2)NC(=O)[C@H](CCCNC(=N)N)NC(=O)[C@H](CCCNC(=N)N)NC(=O)[C@H]([C@@H](C)CC)NC1=O` [compound 162]: the Kd lay within 1 to 100 nM. In the case of `CC[C@H](C)[C@@H]1NC(=O)[C@H](Cc2ccc(O)cc2)NC(=O)[C@H](Cc2ccc(O)cc2)NC(=O)[C@H](CC(N)=O)NC(=O)[C@H](Cc2c[nH]c3ccccc23)N(C)C(=O)[C@H](C(C)C)NC(=O)[C@H](Cc2ccccc2)NC(=O)[C@H](C(C)C)NC(=O)[C@H](C)NC(=O)CSC[C@@H](C(=O)NCCOCCOCCOCCOCCC(=O)N[C@@H](CNC(=O)c2ccc(-c3c4ccc(=O)cc-4oc4cc(O)ccc34)c(C(=O)O)c2)C(N)=O)NC(=O)[C@H](Cc2ccc(O)cc2)N(C)C(=O)[C@H](Cc2ccc(O)cc2)NC(=O)[C@H](CCCNC(=N)N)NC(=O)[C@H](CCCNC(=N)N)NC(=O)[C@H]([C@@H](C)CC)NC1=O` [compound 163], the Kd fell in the range of 1 to 100 nM. As for `CC[C@H](C)[C@@H]1NC(=O)[C@H](Cc2ccc(O)cc2)NC(=O)[C@H](Cc2ccc(O)cc2)NC(=O)[C@H](CC(N)=O)NC(=O)[C@H](Cc2c[nH]c3ccccc23)NC(=O)[C@H](C(C)C)NC(=O)[C@H](Cc2ccccc2)NC(=O)[C@H](C(C)C)NC(=O)[C@H](C)NC(=O)CSC[C@@H](C(=O)NCCOCCOCCOCCOCCC(=O)N[C@@H](CNC(=O)c2ccc(-c3c4ccc(=O)cc-4oc4cc(O)ccc34)c(C(=O)O)c2)C(N)=O)NC(=O)[C@H](Cc2ccc(O)cc2)N(C)C(=O)[C@H](Cc2ccc(O)cc2)NC(=O)[C@H](CCCNC(=N)N)NC(=O)[C@H](CCCNC(=N)N)N(C)C(=O)[C@H]([C@@H](C)CC)NC1=O` [compound 164], the Kd lay in the range of 1 to 100 nM.

Staying with this test, now noted: hTfR binding by SPR; hTfR No. 894 variant peptides, linker-added peptides and payload conjugates (Table 2); read-out: KD value obtained from the SPR measurement.
With `CC[C@H](C)[C@@H]1NC(=O)[C@H](Cc2ccc(O)cc2)NC(=O)[C@H](Cc2ccc(O)cc2)NC(=O)[C@H](CC(N)=O)NC(=O)[C@H](Cc2c[nH]c3ccccc23)NC(=O)[C@H](C(C)C)NC(=O)[C@H](Cc2ccccc2)N(C)C(=O)[C@H](C(C)C)NC(=O)[C@H](C)NC(=O)CSC[C@@H](C(=O)NCCOCCOCCOCCOCCC(=O)NCCOCCOCCOCCOCCC(=O)N[C@@H](CCCCNC(=O)C2CCC(CN3C(=O)C=CC3=O)CC2)C(N)=O)NC(=O)[C@H](Cc2ccc(O)cc2)N(C)C(=O)[C@H](Cc2ccc(O)cc2)NC(=O)[C@H](CCCNC(=N)N)NC(=O)[C@H](CCCNC(=N)N)NC(=O)[C@H]([C@@H](C)CC)NC1=O` (stereo partly shown) [compound 181], the Kd was < 1 nM. For `CC[C@H](C)[C@@H]1NC(=O)[C@H](Cc2ccc(O)cc2)NC(=O)[C@H](Cc2ccc(O)cc2)NC(=O)[C@H](CC(N)=O)NC(=O)[C@H](Cc2c[nH]c3ccccc23)NC(=O)[C@H](C(C)C)NC(=O)[C@H](Cc2ccccc2)N(C)C(=O)[C@H](C(C)C)NC(=O)[C@H](C)NC(=O)CSC[C@@H](C(=O)NCCOCCOCCOCCOCCC(=O)NCCOCCOCCOCCOCCC(=O)NCCOCCOCCOCCOCCC(=O)N[C@@H](CCCCNC(=O)C2CCC(CN3C(=O)C=CC3=O)CC2)C(N)=O)NC(=O)[C@H](Cc2ccc(O)cc2)N(C)C(=O)[C@H](Cc2ccc(O)cc2)NC(=O)[C@H](CCCNC(=N)N)NC(=O)[C@H](CCCNC(=N)N)NC(=O)[C@H]([C@@H](C)CC)NC1=O` (stereo partly shown) [compound 182], the Kd lay within 1 to 100 nM. As for `CC[C@H](C)[C@@H]1NC(=O)[C@H](Cc2ccc(O)cc2)NC(=O)[C@H](Cc2ccc(O)cc2)NC(=O)[C@H](CC(N)=O)NC(=O)[C@H](Cc2c[nH]c3ccccc23)N(C)C(=O)[C@H](C(C)C)NC(=O)[C@H](Cc2ccccc2)N(C)C(=O)[C@H](C(C)C)NC(=O)[C@H](C)NC(=O)CSC[C@@H](C(=O)NCCOCCOCCOCCOCCOCCOCCOCCOCCOCCOCCOCCOCCC(=O)N[C@@H](CCCCNC(=O)C2CCC(CN3C(=O)C=CC3=O)CC2)C(N)=O)NC(=O)[C@H](Cc2ccc(O)cc2)N(C)C(=O)[C@H](Cc2ccc(O)cc2)NC(=O)[C@H](CCCNC(=N)N)NC(=O)[C@H](CCCNC(=N)N)NC(=O)[C@H]([C@@H](C)CC)NC1=O` (stereo partly shown) [compound 183], the Kd fell in the range of 1 to 100 nM.

Regarding `CC[C@H](C)[C@@H]1NC(=O)[C@H](Cc2ccc(O)cc2)NC(=O)[C@H](Cc2ccc(O)cc2)NC(=O)[C@H](CC(N)=O)NC(=O)[C@H](Cc2c[nH]c3ccccc23)N(C)C(=O)[C@H](C(C)C)NC(=O)[C@H](Cc2ccccc2)N(C)C(=O)[C@H](C(C)C)NC(=O)[C@H](C)NC(=O)CSC[C@@H](C(=O)NCCOCCOCCOCCOCCC(=O)N[C@@H](CCCCNC(=O)C2CCC(CN3C(=O)C=CC3=O)CC2)C(N)=O)NC(=O)[C@H](Cc2ccc(O)cc2)N(C)C(=O)[C@H](Cc2ccc(O)cc2)NC(=O)[C@H](CCCNC(=N)N)NC(=O)[C@H](CCCNC(=N)N)NC(=O)[C@H]([C@@H](C)CC)NC1=O` (stereo partly shown) [compound 184], the Kd lay in the range of 1 to 100 nM. In the case of `CC[C@H](C)[C@@H]1NC(=O)[C@H](Cc2ccc(O)cc2)NC(=O)[C@H](Cc2ccc(O)cc2)NC(=O)[C@H](CC(N)=O)NC(=O)[C@H](Cc2c[nH]c3ccccc23)N(C)C(=O)[C@H](C(C)C)NC(=O)[C@H](Cc2ccccc2)N(C)C(=O)[C@H](C(C)C)NC(=O)[C@H](C)NC(=O)CSC[C@@H](C(=O)NCCOCCOCCOCCOCCOCCOCCOCCOCCC(=O)N[C@@H](CCCCNC(=O)C2CCC(CN3C(=O)C=CC3=O)CC2)C(N)=O)NC(=O)[C@H](Cc2ccc(O)cc2)N(C)C(=O)[C@H](Cc2ccc(O)cc2)NC(=O)[C@H](CCCNC(=N)N)NC(=O)[C@H](CCCNC(=N)N)NC(=O)[C@H]([C@@H](C)CC)NC1=O` (stereo partly shown) [compound 185], the Kd is 1 to 100 nM. For `CC[C@H](C)[C@@H]1NC(=O)[C@H](Cc2ccc(O)cc2)NC(=O)[C@H](Cc2ccc(O)cc2)NC(=O)[C@H](CC(N)=O)NC(=O)[C@H](Cc2c[nH]c3ccccc23)NC(=O)[C@H](C(C)C)NC(=O)[C@H](Cc2ccccc2)N(C)C(=O)[C@H](C(C)C)NC(=O)[C@H](C)NC(=O)CSC[C@@H](C(=O)N[C@@H](CCCCNC(=O)C2CCC(CN3C(=O)C=CC3=O)CC2)C(N)=O)NC(=O)[C@H](Cc2ccc(O)cc2)N(C)C(=O)[C@H](Cc2ccc(O)cc2)NC(=O)[C@H](CCCNC(=N)N)NC(=O)[C@H](CCCNC(=N)N)NC(=O)[C@H]([C@@H](C)CC)NC1=O` (stereo partly shown) [compound 186], the Kd lay within 1 to 100 nM.

With `CC[C@H](C)[C@@H]1NC(=O)[C@H](Cc2ccc(O)cc2)NC(=O)[C@H](Cc2ccc(O)cc2)NC(=O)[C@H](CC(N)=O)NC(=O)[C@H](Cc2c[nH]c3ccccc23)NC(=O)[C@H](C(C)C)NC(=O)[C@H](Cc2ccccc2)N(C)C(=O)[C@H](C(C)C)NC(=O)[C@H](C)NC(=O)CSC[C@@H](C(=O)NCC(=O)NCC(=O)NCC(=O)N[C@@H](CO)C(=O)N[C@@H](CO)C(=O)N[C@@H](CCCCNC(=O)C2CCC(CN3C(=O)C=CC3=O)CC2)C(N)=O)NC(=O)[C@H](Cc2ccc(O)cc2)N(C)C(=O)[C@H](Cc2ccc(O)cc2)NC(=O)[C@H](CCCNC(=N)N)NC(=O)[C@H](CCCNC(=N)N)NC(=O)[C@H]([C@@H](C)CC)NC1=O` (stereo partly shown) [compound 187], the Kd lay within 1 to 100 nM. With `CC[C@H](C)[C@@H]1NC(=O)[C@H](Cc2ccc(O)cc2)NC(=O)[C@H](Cc2ccc(O)cc2)NC(=O)[C@H](CC(N)=O)NC(=O)[C@H](Cc2c[nH]c3ccccc23)NC(=O)[C@H](C(C)C)NC(=O)[C@H](Cc2ccccc2)N(C)C(=O)[C@H](C(C)C)NC(=O)[C@H](C)NC(=O)CSC[C@@H](C(=O)NCC(=O)N[C@@H](CCCCNC(=O)C2CCC(CN3C(=O)C=CC3=O)CC2)C(N)=O)NC(=O)[C@H](Cc2ccc(O)cc2)N(C)C(=O)[C@H](Cc2ccc(O)cc2)NC(=O)[C@H](CCCNC(=N)N)NC(=O)[C@H](CCCNC(=N)N)NC(=O)[C@H]([C@@H](C)CC)NC1=O` (stereo partly shown) [compound 188], the Kd was 1 to 100 nM.

Take `CC[C@H](C)[C@@H]1NC(=O)[C@H](Cc2ccc(O)cc2)NC(=O)[C@H](Cc2ccc(O)cc2)NC(=O)[C@H](CC(N)=O)NC(=O)[C@H](Cc2c[nH]c3ccccc23)NC(=O)[C@H](C(C)C)NC(=O)[C@H](Cc2ccccc2)N(C)C(=O)[C@H](C(C)C)NC(=O)[C@H](C)NC(=O)CSC[C@@H](C(=O)NCC(=O)NCC(=O)N[C@@H](CO)C(=O)NCC(=O)N[C@@H](CO)C(=O)N[C@@H](CO)C(=O)NCC(=O)N[C@@H](CO)C(=O)N[C@@H](CO)C(=O)N[C@@H](CCCCNC(=O)C2CCC(CN3C(=O)C=CC3=O)CC2)C(N)=O)NC(=O)[C@H](Cc2ccc(O)cc2)N(C)C(=O)[C@H](Cc2ccc(O)cc2)NC(=O)[C@H](CCCNC(=N)N)NC(=O)[C@H](CCCNC(=N)N)NC(=O)[C@H]([C@@H](C)CC)NC1=O` (stereo partly shown) [compound 189]: the Kd is 1 to 100 nM.

Turning to `CC[C@H](C)[C@@H]1NC(=O)[C@H](Cc2ccc(O)cc2)NC(=O)[C@H](Cc2ccc(O)cc2)NC(=O)[C@H](CC(N)=O)NC(=O)[C@H](Cc2c[nH]c3ccccc23)NC(=O)[C@H](C(C)C)NC(=O)[C@H](Cc2ccccc2)N(C)C(=O)[C@H](C(C)C)NC(=O)[C@H](C)NC(=O)CSC[C@@H](C(=O)NCC(=O)NCC(=O)N[C@@H](CCC(=O)O)C(=O)N[C@@H](CO)C(=O)N[C@@H](CCC(=O)O)C(=O)N[C@@H](CO)C(=O)N[C@@H](CCCCNC(=O)C2CCC(CN3C(=O)C=CC3=O)CC2)C(N)=O)NC(=O)[C@H](Cc2ccc(O)cc2)N(C)C(=O)[C@H](Cc2ccc(O)cc2)NC(=O)[C@H](CCCNC(=N)N)NC(=O)[C@H](CCCNC(=N)N)NC(=O)[C@H]([C@@H](C)CC)NC1=O` (stereo partly shown) [compound 192], the Kd is 1 to 100 nM.
